According to patent US12492183B2, “Tetrahydroquinazoline derivatives as selective cytotoxic agents” (Merck Sharp & Dohme LLC, priority 2020, dated 2025):

System: PBMCs infected with VSV-G pseudotyped HIV virus (VSV-G/pNLG1-P2A-ΔEnv)
Assay: cells
Assay type: cell-based
Conditions: Homo sapiens, PBMC, read-out: TACK EC50

| SMILES | EC50 [nM] |
| --- | --- |
| Nc1ncc(F)c(Cc2cc3c(cc2Cl)[C@@](C#CC2CC2)(C(F)(F)F)NC(=O)N3)n1 [Example 32, (S)-7-((2-amino-5-fluoropyr-imidin-4-yl)methyl)-6-chloro-4-(cyclopropylethynyl)-4-(trifluoromethyl)-3,4-dihydro-quinazolin-2(1H)-one] | 156 |
| Cc1cc2c(cc1Cc1ccnc(N)n1)NC(=O)N[C@]2(C#CC1CC1)C(F)(F)F [Example 33, (S)-7-((2-aminopyrimidin-4-yl)methyl)-4-(cyclopropyl-ethynyl)-6-methyl-4-(trifluoro-methyl)-3,4-dihydroquinazo-lin-2(1H)-one] | 183 |
| Cc1cnc(N)nc1Cc1ccc2c(c1)NC(=O)N[C@]2(C#CC1CC1)C(F)(F)F [Example 34, (S)-7-((2-amino-5-methylpyr-imidin-4-yl)methyl)-4-(cyclo-propylethynyl)-4-(trifluoro-methyl)-3,4-dihydroquinazo-lin-2(1H)-one] | 155 |
| Nc1cccc(Cc2ccc3c(c2)NC(=O)N[C@]3(C#CC2CC2)C(F)(F)F)n1 [Example 35, (S)-7-((6-aminopyridin-2-yl)methyl)-4-(cyclopropylethynyl)-4-(trifluoromethyl)-3,4-dihydroquinazolin-2(1H)-one] | 106 |
| Nc1ccc(F)c(Cc2ccc3c(c2)NC(=O)N[C@]3(C#CC2CC2)C(F)(F)F)n1 [Example 36, (S)-7-((6-amino-3-fluoro-pyridin-2-yl)methyl)-4-(cyclopropylethynyl)-4-(trifluoromethyl)-3,4-dihydroquinazolin-2(1H)-one] | 155 |
| Nc1cc(Cc2ccc3c(c2)NC(=O)N[C@]3(C#CC2CC2)C(F)(F)F)c(F)cn1 [Example 37, (S)-7-((2-amino-5-fluoro-pyridin-4-yl)methyl)-4-(cyclopropylethynyl)-4-(trifluoromethyl)-3,4-dihydroquinazolin-2(1H)-one] | 168 |
| Nc1nccc(Cc2cc3c(cc2F)[C@@](C#CC2CC2)(C(F)(F)F)NC(=O)N3)n1 [Example 38, (S)-7-((2-aminopyrimidin-4-yl)methyl)-4-(cyclopropylethynyl)-6-fluoro-4-(trifluoromethyl)-3,4-dihydroquinazolin-2(1H)-one] | 38.6 |
| CN1C(=O)Nc2cc(Cc3ccnc(N)n3)ccc2[C@@]1(C#CC1CC1)C(F)(F)F [Example 39, (S)-7-((2-aminopyrimidin-4-yl)methyl)-4-(cyclopropylethynyl)-3-methyl-4-(trifluoromethyl)-3,4-dihydroquinazolin-2(1H)-one] | 60.3 |
| O=C1Nc2cc(Cc3ccc(CO)cn3)c(F)cc2[C@@](C#CC2CC2)(C(F)(F)F)N1 [Example 41, (S)-2-((4-(cyclopropylethynyl)-6-fluoro-2-oxo-4-(trifluoromethyl)-1,2,3,4-tetrahydroquinazolin-7-yl)methyl)-5-(hydroxymethyl)pyridin-1-ium 2,2,2-trifluoroacetate] | 90.7 |
| O=C1Nc2cc(Cc3ccc(OCCO)cn3)c(F)cc2[C@@](C#CC2CC2)(C(F)(F)F)N1 [Example 42, (S)-4-(cyclopropylethynyl)-6-fluoro-7-((5-(2-hydroxyethoxy)pyridin-2-yl)methyl)-4-(trifluoromethyl)-3,4-dihydroquinazolin-2(1H)-one] | 161 |
| N#Cc1cc(Cc2cc3c(cc2F)[C@@](C#CC2CC2)(C(F)(F)F)NC(=O)N3)[n+]([O-])cc1OCCO [Example 43, (S)-4-cyano-2-((4-(cyclopropylethynyl)-6-fluoro-2-oxo-4-(trifluoromethyl)-1,2,3,4-tetrahydroquinazolin-7-yl)methyl)-5-(2-hydroxyethoxy)pyridine 1-oxide] | 166 |
| NS(=O)(=O)c1ccc(Cc2ccc3c(c2)NC(=S)N[C@]3(C#CC2CC2)C(F)(F)F)cc1 [Example 44, (S)-4-((4-(cyclopropylethynyl)-2-thioxo-4-(trifluoromethyl)-1,2,3,4-tetrahydroquinazolin-7-yl)methyl)benzenesulfonamide] | 180 |
| Nc1nc(Cc2ccc3c(c2)NC(=O)N[C@]3(C#CC2CC2)C(F)(F)F)ccc1CO [Example 45, (S)-7-((6-amino-5-(hydroxymethyl)pyridin-2-yl)methyl)-4-(cyclopropylethynyl)-4-(trifluoromethyl)-3,4-dihydroquinazolin-2(1H)-one] | 53.2 |
| Nc1nc(Cc2cc3c(cc2F)[C@@](C#CC2CC2)(C(F)(F)F)NC(=O)N3)cnc1CO [Example 46, (S)-7-((6-amino-5-(hydroxymethyl)pyrazin-2-yl)methyl)-4-(cyclopropylethynyl)-6-fluoro-4-(trifluoromethyl)-3,4-dihydroquinazolin-2(1H)-one] | 108 |
| CC(F)(F)[C@@]1(C#CC2CC2)NC(=O)Nc2cc(Cc3ccnc(N)n3)c(F)cc21 [Example 47, (S)-7-((2-aminopyrimidin-4-yl)methyl)-4-(cyclopropylethynyl)-4-(1,1-difluoroethyl)-6-fluoro-3,4-dihydroquinazolin-2(1H)-one] | 17.1 |
| Nc1nc(Cl)cc(Cc2ccc3c(c2)NC(=O)N[C@]3(C#CC2CC2)C(F)(F)F)n1 [Example 48, (S)-7-((2-amino-6-chloropyrimidin-4-yl)methyl)-4-(cyclopropylethynyl)-4-(trifluoromethyl)-3,4-dihydroquinazolin-2(1H)-one] | 142 |
| Nc1ncnc(Cc2ccc3c(c2)NC(=O)N[C@]3(C#CC2CC2)C(F)(F)F)n1 [Example 49, (S)-7-((4-amino-1,3,5-triazin-2-yl)methyl)-4-(cyclopropyl-ethynyl)-4-(trifluoromethyl)-3,4-dihydroquinazolin-2(1H)-one] | 146 |
| N#Cc1c(Cc2ccc3c(c2)NC(=O)N[C@]3(C#CC2CC2)C(F)(F)F)ccnc1N [Example 50, (S)-2-amino-4-((4-(cyclo-propylethynyl)-2-oxo-4-(trifluoromethyl)-1,2,3,4-tetrahydroquinazolin-7-yl)-methyl)nicotinonitrile] | 34.9 |
| O=C1Nc2cc(Cc3cnccn3)c(F)cc2[C@@](C#CC2CC2)(C(F)(F)F)N1 [Example 51, (S)-4-(cyclopropylethynyl)-6-fluoro-7-(pyrazin-2-ylmeth-yl)-4-(trifluoromethyl)-3,4-dihydroquinazolin-2(1H)-one] | 96.4 |
| N#Cc1c(Cc2cc3c(cc2F)[C@@](C#CC2CC2)(C(F)(F)F)NC(=O)N3)ccnc1N [Example 52, (S)-2-amino-4-((4-(cyclo-propylethynyl)-6-fluoro-2-oxo-4-(trifluoromethyl)-1,2,3,4-tetrahydroquinazolin-7-yl)methyl)nicotinonitrile] | 21.4 |
| O=C1Nc2cc(Cc3ccccn3)c(F)cc2[C@@](C#CC2CC2)(C(F)(F)F)N1 [Example 53, (S)-4-(cyclopropylethynyl)-6-fluoro-7-(pyridin-2-ylmeth-yl)-4-(trifluoromethyl)-3,4-dihydroquinazolin-2(1H)-one] | 137 |
| Nc1cncc(Cc2ccc3c(c2)NC(=O)N[C@]3(C#CC2CC2)C(F)(F)F)n1 [Example 54, (S)-7-((6-aminopyrazin-2-yl)-methyl)-4-(cyclopropyl-ethynyl)-4-(trifluoromethyl)-3,4-dihydroquinazolin-2(1H)-one] | 67.3 |
| NC(=O)c1c(Cc2ccc3c(c2)NC(=O)N[C@]3(C#CC2CC2)C(F)(F)F)ccnc1N [Example 55] | 191 |
| N#Cc1cnccc1Cc1cc2c(cc1F)[C@@](C#CC1CC1)(C(F)(F)F)NC(=O)N2 [Example 56, (S)-4-((4-(cyclopropylethynyl)-6-fluoro-2-oxo-4-(trifluoromethyl)-1,2,3,4-tetrahydroquinazolin-7-yl)methyl)nicotinonitrile] | 83.5 |
| O=C1Nc2cc(Cc3ccncc3)c(F)cc2[C@@](C#CC2CC2)(C(F)(F)F)N1 [Example 57, (S)-4-(cyclopropylethynyl)-6-fluoro-7-(pyridin-4-ylmethyl)-4-(trifluoromethyl)-3,4-dihydroquinazolin-2(1H)-one] | 120 |
| CC(F)(F)[C@@]1(C#CC2CC2)NC(=O)Nc2cc(Cc3nc(N)ncc3F)ccc21 [Example 58, (S)-7-((2-amino-5-fluoropyrimidin-4-yl)methyl)-4-(cyclopropylethynyl)-4-(1,1-difluoroethyl)-3,4-dihydroquinazolin-2(1H)-one] | 82.8 |
| Nc1nccc(Cc2c(F)cc3c(c2F)NC(=O)N[C@]3(C#CC2CC2)C(F)(F)F)n1 [Example 59, (S)-7-((2-aminopyrimidin-4-yl)methyl)-4-(cyclopropylethynyl)-6,8-difluoro-4-(trifluoromethyl)-3,4-dihydroquinazolin-2(1H)-one] | 122 |
| O=C1Nc2cc(Cc3ncc[nH]c3=O)ccc2[C@@](C#CC2CC2)(C(F)(F)F)N1 [Example 61, (S)-4-(cyclopropylethynyl)-7-((3-hydroxypyrazin-2-yl)methyl)-4-(trifluoromethyl)-3,4-dihydroquinazolin-2(1H)-one] | 65 |
| Cc1nc(CO)[nH]c(=O)c1Cc1ccc2c(c1)NC(=O)N[C@]2(C#CC1CC1)C(F)(F)F [Example 63, (S)-4-(cyclopropylethynyl)-7-((2-(hydroxymethyl)-4-methyl-6-oxo-1,6-dihydropyrimidin-5-yl)methyl)-4-(trifluoromethyl)-3,4-dihydroquinazolin-2(1H)-one] | 176 |
